Test results: patent US6475719B1, “Determination of factors affecting gene regulation and/or gene replication” (priority 1989, dated 2002)

Columns and labels:
[1] = test system: B. subtilis 1A40 cells; experiment: Light emission, click beetle luciferase (pCSS962), IPTG induced; assay type: cell-based, Bacillus subtilis; conditions: incubation 2 hours at 30° C.; FIG. 11b
Description: Using this construction, the production of luciferase can be turned on in B. subtilis by simple addition of IPTG, which binds to the lac repressor coded by the helper plasmid pBL1 present in the same cell. After IPTG binds to the repressor, the repressor cannot bind to the DNA region between phage T5 promoter and the luciferase gene thus allowing the expression of luciferase. Cells containing both plasmids were cultured overnight in 2×TY containing erythromycin (10 μg/ml, to keep pBL1 in the cell) and kanamycin (10 μg/ml, to keep pCSS952 in the cell). A suitable dilution was made and different amounts of antibiotic were added to the cells. After an incubation period of 2 hours at 30° C., the tubes were measured for light emission after addition of 1 mM D-luciferin substrate in 0.1 M Na-citrate. As shown in FIG. 11b a low amount of 0.1 ug/ml ampicillin and even lower amounts of oxytetracyclin and streptomycin can be detected.

[2] = test system: E. coli pCSS112/K-12 HI trp(c1857); experiment: Light production, bacterial luciferase under PL promoter (pCSS112); assay type: cell-based, Escherichia coli; conditions: concentration in the measuring cuvette; 20 min at 30° C., 42° C. for 10 minutes
Description: A comparison is made between plasmids where the expression of bacterial luciferase genes are controlled by either lac (slow) or PL promoter (fast) promoters. E. coli clone pCSS112/K-12 HI trp(c1857) was grown overnight in 2×TY medium containing ampicillin 100 μg/ml. After this a suitable dilution was made in HBSS-buffer or in milk and 500 μl of this was added to 3 ml luminometer tubes. The tubes were equilibrated to 30° C. and different amounts of various toxic substances were added to tubes. Tubes were kept at 30° C. for 20 min, after which the temperature was shifted to 42° C. for 10 minutes. Thereafter the tubes were removed to luminometer chamber which had been equilibrated to 30° C. for automated measurement. As a comparison, an E. coli JM103 clone containing plasmid pCSS108 was used as a control. The control cells were treated similarly but without the heat-shock step. Messanger RNA and protein synthesis were induced in the control cells by adding IPTG to 1 mM. […] In case of chloramphenicol, the kinetics of light production have been shown in FIG. 11a when plasmid pCSS112 in E. coli K-12 HI trp(c1857) strain is used.
The following examples show detection of substances affecting other biosynthetic routes and metabolism of cells. […]
The following figures show the effect of each tested substance as measured by light production. […]

[3] = test system: E. coli pCSS123/JM103 cells; experiment: Light production by cells with runaway-replication plasmid pCSS123; assay type: cell-based, Escherichia coli; conditions: 20 min at 30° C., 42° C. one hour, IPTG 1 mM; FIG. 9a
Description: E. coli pCSS123/JM103 cells grown overnight were diluted 1:1000. Diluted cells in 2×TY were taken (0.5 ml) and various amounts of antibiotics or other toxic substances were added. These solutions were incubated 20 min at 30° C. After this the samples were transferred to 42° C. for one hour. Each tube was thereafter incubated at 30° C. in a waterbath and IPTG was added to 1 mM and n-decanal to 0.01%. The tubes were transferred to an automated light-gathering device, i.e., luminometer 1251 (LKB-Wallac, Turku, Finland) whose measuring chamber had been equilibrated to 30° C. Measurement of light emission by the cells was done with the auto-mode program so that each tube was automatically measured every two minutes. Data were collected in the memory of the computer for later analyses. […] For clarity reasons only two concentrations of chloramphenicol were compared to the untreated control.

[4] = test system: E. coli pCSS123/JM103 cells; experiment: Change in plasmid copy number: total DNA from heat-treated cells, agarose gel; assay type: cell-based, Escherichia coli; conditions: 42° C. for one hour; tested at 0, 1, 10 and 100 μg/ml; FIG. 8
Description: The plasmid pCSS123 described in the instant invention is a runaway-replication plasmid, in which a change in copy number can be obtained by shifting the temperature (FIG. 8). The effect of nalidixic acid, an agent known to inhibit DNA replication of cell DNA and especially of plasmid pCSS123 DNA, is shown in FIG. 8.
E. coli pCSS123/JM103 cells were cultivated in 20 ml of 2×TY at 30° C. in four Erlenmeyer bottles until the absorbance measured at 600 nm was 0.3. Nalidixic acid, a known inhibitor of DNA replication, was added to a final concentration of 0, 1, 10 and 100 μg/ml. Parallel samples of 1.5 ml from each bottle were immediately withdrawn to 15 ml tubes and kept at 30° C. for 20 min. The tubes were transferred to 42° C. for one hour and the bottles were left at 30° C. After one hour, both the tubes and the bottles were kept for an additional hour at 30° C. in a shaker. Total-DNA was extracted from 1.5 ml of culture.
Cells were centrifuged and the pellets were suspended in 500 μl 50 mM TRIS-HC1, pH 8.0, 50 mM EDTA. Cells were kept in an ice bath for 30 min and 50 μl of lysozyme (10 mg/ml) was added and kept in an ice bath for 45 min. One hundred μl of STEP solution (0.5% SDS, 50 mM TRIS-HC1, pH 7.5, 0.4 M EDTA) was added and kept at 50° C. for 60 min. After this, 600 μl of phenol was added and the tubes were gently mixed for 5 min and centrifuged 10 min at 12000×g. […]

[5] = test system: E. coli pCSS123/BW322; conditions: heat induced at 42° C. for 25 minutes; FIG. 9d
Description: Freeze-dried E. coli pCSS123/BW322 were reconstituted with 1.0 ml of 2×TY and 45 μl of this was diluted 1:10 with 2×TY. Five μl of trimethoprim dilutions were added and kept at room temperature for 25 minutes. Cells were heat induced at 42° C. for 25 minutes and equilibrated to 30° C. in a water bath for 10 minutes. n-decanal was added to 0.001% and light production was measured using a LKB-Wallac 1250 manual luminometer. Same concentrations of trimethoprim together with reconstituted, freeze-dried cells which were not heat-treated acted as controls.

[6] = test system: metallothioneins; conditions: cadmium added to growth medium to 4×10^−6 molar; eucaryotic cells; cited from earlier work

CC1(C)S[C@@H]2[C@H](NC(=O)[C@H](N)c3ccccc3)C(=O)N2[C@H]1C(=O)O [ampicillin]
amount that can be detected by light emission [1]: 0.1 µg/mL

O=C(N[C@H](CO)[C@H](O)c1ccc([N+](=O)[O-])cc1)C(Cl)Cl [chloramphenicol]
lowest concentration giving differences in measured activity (light production) from the start of measurement [2]: 0.1 µg/mL

CCn1cc(C(=O)O)c(=O)c2ccc(C)nc21 [nalidixic acid]
amount that can be detected very quickly by light emission [3]: 2 µg
amount of nalidixic acid in whose presence DNA content was unaffected (no heat-induced increase of plasmid DNA) [4]: ≥ 1 µg

COc1cc(Cc2cnc(N)nc2N)cc(OC)c1OC [trimethoprim]
sensitivity of detection by light production [5]: sensitivity of the assay is very high

[Cd] [cadmium]
increase in the production of metallothioneins [6]: over fifty
